Experimental findings from US10988459B2 (priority 2015, dated 2021) are described below.

Read-outs that look alike come from different tables or passages of the source.

The experiment concerns the target human RIP1 kinase domain (2-375) (Homo sapiens (Human), UniProt Q13546). The experiment can be described thus: biochemical. As to conditions: 50 uM ATP. The format is biochemical. A digest of the protocol: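 50 nM purified kinase domain from baculovirus-infected insect cells, incubated 2 h with compound in 50 mM Hepes pH 7.5, 30 mM MgCl2, 1 mM DTT, 50 uM ATP, 0.002% Brij-35, 0.5% DMSO. ADP formation read by Transcreener FP at 633 nm excitation. Ki^app fitted with the Morrison tight-binding equation.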

Setting [1] is: human RIP1 kinase domain (2-375), Transcreener ADP assay, 2 hours incubation, read-out: RIP1 Ki.
The mark [2] stands for this setting: human RIP1 kinase domain (2-375), 2 hours incubation, Transcreener ADP assay, read-out: RIP1 Ki.
Setting [3] is: Table 1, apparent Ki (Morrison tight-binding fit), 50 nM RIP1 kinase domain, 2 hours incubation, read-out: RIP1 Ki.
The mark [4] stands for this setting: Table 5, apparent Ki (Morrison tight-binding fit), 50 nM RIP1 kinase domain, 2 hours incubation, read-out: Ki.
Setting [5] is: tight-binding apparent inhibition constant, human RIP1 kinase domain (2-375) 50 nM, 2 hours, read-out: Ki.

Chain of human RIP1 kinase domain (2-375) (Q13546 2-375): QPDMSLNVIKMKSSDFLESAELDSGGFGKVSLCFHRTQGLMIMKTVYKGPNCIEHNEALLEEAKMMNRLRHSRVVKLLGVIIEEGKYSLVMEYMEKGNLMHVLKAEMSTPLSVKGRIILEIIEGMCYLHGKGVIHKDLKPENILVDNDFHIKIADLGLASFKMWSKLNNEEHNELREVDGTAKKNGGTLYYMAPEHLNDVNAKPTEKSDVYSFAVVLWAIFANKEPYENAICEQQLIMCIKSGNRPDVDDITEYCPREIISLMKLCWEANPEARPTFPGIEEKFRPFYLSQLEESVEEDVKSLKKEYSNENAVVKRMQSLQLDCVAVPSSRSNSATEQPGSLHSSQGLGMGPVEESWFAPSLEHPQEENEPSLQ

On to `CC[C@@]1(C)OCc2cnc(C(=O)N[C@H]3CCn4nc([C@@H]5CC5(F)F)cc4N(C)C3=O)cc21` [Example 325, (R)—N—((S)-2-((S)-2,2-difluorocyclopropyl)-4-methyl-5-oxo-5,6,7,8-tetrahydro-4H-pyrazolo[1,5-a][1,3]diazepin-6-yl)-1-ethyl-1-methyl-1,3-dihydrofuro[3,4-c]pyridine-6-carboxamide], for which the Ki under setting [1] worked out at 3.34 µM.
`CN1C(=O)[C@@H](NC(=O)c2n[nH]c3c2CC(CC(F)(F)F)OC3)COc2ccccc21` (stereo partly drawn) [Example 210, N—((S)-5-methyl-4-oxo-2,3,4,5-tetrahydrobenzo[b][1,4]oxazepin-3-yl)-5-(2,2,2-trifluoroethyl)-1,4,5,7-tetrahydropyrano[3,4-c]pyrazole-3-carboxamide]: the Ki under setting [2] amounted to 0.193 µM.
With `O=C(N[C@H]1CCc2cc(Cl)ccc2NC1=O)c1n[nH]c2c1CCC2` [Example 49, (S)-N-(7-chloro-2-oxo-2,3,4,5-tetrahydro-1H-benzo[b]azepin-3-yl)-1,4,5,6-tetrahydrocyclopenta[c]pyrazole-3-carboxamide], the Ki under setting [3] amounted to 7.6 µM.
Regarding `CN1C(=O)[C@@H](NC(=O)c2cc3c(-c4ccccc4F)cccn3n2)COc2ccccc21` [Example 708, 4-(2-fluorophenyl)-N-[(3S)-5-methyl-4-oxo-2,3-dihydro-1,5-benzoxazepin-3-yl]pyrazolo[1,5-a]pyridine-2-carboxamide], the Ki under setting [4] stood at 0.004 µM.
Regarding `CN1C(=O)[C@@H](NC(=O)c2n[nH]c3ccc(C#N)cc23)COc2ccccc21` [Example 83, (S)-5-cyano-N-(5-methyl-4-oxo-2,3,4,5-tetrahydrobenzo[b][1,4]oxazepin-3-yl)-1H-indazole-3-carboxamide], under setting [2], the Ki stood at 0.167 µM.
Still for that read-out and setting: the figure for `CN1C(=O)[C@@H](NC(=O)c2n[nH]c3c2CC(c2ccc(F)cc2)OC3)COc2ccccc21` (stereo partly drawn) [Example 205, 5-(4-fluorophenyl)-N—((S)-5-methyl-4-oxo-2,3,4,5-tetrahydrobenzo[b][1,4]oxazepin-3-yl)-1,4,5,7-tetrahydropyrano[3,4-c]pyrazole-3-carboxamide] is 0.0983 µM.
Regarding `O=C(N[C@H]1COc2cc(F)cc(F)c2NC1=O)c1nc2n(n1)[C@@H](c1ccccc1)CC2` [Example 621, (5R)-5-phenyl-N-[(3S)-6,8-difluoro-4-oxo-3,5-dihydro-2H-1,5-benzoxazepin-3-yl]-6,7-dihydro-5H-pyrrolo[1,2-b][1,2,4]triazole-2-carboxamide], the Ki under setting [5] was 0.0031 µM.
Still for that read-out and setting: under `O=C(N[C@H]1CCc2cc(F)cc(F)c2NC1=O)c1nc2n(n1)CC[C@@H]2c1ccccc1` (single isomer, unassigned) [Example 627] stands 0.16 µM.
Take `Cc1cc2n(n1)CC[C@H](NC(=O)c1ncn(Cc3cccc(F)c3F)n1)C(=O)N2C` [Example 219, (S)-1-(2,3-difluorobenzyl)-N-(2,4-dimethyl-5-oxo-5,6,7,8-tetrahydro-4H-pyrazolo[1,5-a][1,3]diazepin-6-yl)-1H-1,2,4-triazole-3-carboxamide]: the Ki under setting [2] came to 0.0297 µM.
Regarding `CN1C(=O)[C@@H](NC(=O)c2nc3n(n2)[C@H](c2ccccc2)CC3)COc2ccccc21` (single isomer, unassigned) [Example 613], the Ki under setting [5] is 0.071 µM.
Same read-out and setting: the figure for `Cc1cc2n(n1)CC[C@H](NC(=O)c1ncc3c(n1)[C@](C)(CC(F)(F)F)OC3)C(=O)N2C` (racemic) [Example 689, rac-(75)-7-methyl-N-[rac-(6S)-2,4-dimethyl-5-oxo-7,8-dihydro-6H-pyrazolo[1,5-a][1,3diazepin-6-yl]-7-(2,2,2-trifluoroethyl)-5H-furo[3,4-d]pyrimidine-2-carboxamide] is 0.176 µM.
In the case of `CN1C(=O)[C@@H](NC(=O)c2ncc3c(n2)C(C)(C)OC3)COc2ccccc21` [Example 217, (S)-7,7-dimethyl-N-(5-methyl-4-oxo-2,3,4,5-tetrahydrobenzo[b][1,4]oxazepin-3-yl)-5,7-dihydrofuro[3,4-d]pyrimidine-2-carboxamide], the Ki under setting [2] came out at 0.0617 µM.
As to `Cc1nc(C)n2c1N(C)C(=O)[C@H](NC(=O)c1ncn(Cc3ccccc3F)n1)CC2` [Example 596, 1-[(2-fluorophenyl)methyl]-N-(3R)-1,7,9-trimethyl-2-oxo-4,5-dihydro-3H-imidazo[1,5-a][1,3]diazepin-3-yl-1,2,4-triazole-3-carboxamide], under setting [5], the Ki stood at 0.1 µM.
Turning to `Cc1nccn1Cc1cc2n(n1)CCC(NC(=O)c1ncn(Cc3ccccc3)n1)C(=O)N2C` (racemic) [Example 706, 1-benzyl-N-[4-methyl-2-[(2-methylimidazol-1-yl)methyl]-5-oxo-7,8-dihydro-6H-pyrazolo[1,5-a][1,3]diazepin-6-yl]-1,2,4-triazole-3-carboxamide], the Ki under setting [4] came out at 0.413 µM.
Turning to `CN1C(=O)[C@@H](NC(=O)c2nc3n(n2)[C@H](C2CCOCC2)CCC3)COc2ccccc21` (racemic) [Example 410, (S)—N—((S)-5-methyl-4-oxo-2,3,4,5-tetrahydrobenzo[b][1,4]oxazepin-3-yl)-5-(tetrahydro-2H-pyran-4-yl)-5,6,7,8-tetrahydro-[1,2,4]triazolo[1,5-a]pyridine-2-carboxamide], the Ki under setting [5] amounted to 0.121 µM.
Take `CN1C(=O)[C@@H](NC(=O)c2nnc3ccc(C(F)(F)F)nn23)COc2ccccc21` [Example 81, (S)-N-(5-methyl-4-oxo-2,3,4,5-tetrahydrobenzo[b][1,4]oxazepin-3-yl)-6-(trifluoromethyl)-[1,2,4]triazolo[4,3-b]pyridazine-3-carboxamide]: the Ki under setting [3] worked out at 0.567 µM.
Take `CN1C(=O)[C@@H](NC(=O)c2nc3n(n2)C(c2ccccc2)CC3)CCn2nccc21` (stereo partly drawn) [Example 124, N—((S)-4-methyl-5-oxo-5,6,7,8-tetrahydro-4H-pyrazolo[1,5-a][1,3]diazepin-6-yl)-5-phenyl-6,7-dihydro-5H-pyrrolo[1,2-b][1,2,4]triazole-2-carboxamide]: under setting [2], the Ki was 0.0768 µM.
With `CN1C(=O)[C@@H](NC(=O)c2nc3cccc(C4CCOCC4)n3n2)COc2ccccc21` [Example 405, (S)—N-(5-methyl-4-oxo-2,3,4,5-tetrahydrobenzo[b][1,4]oxazepin-3-yl)-5-(tetrahydro-2H-pyran-4-yl)-[1,2,4]triazolo[1,5-a]pyridine-2-carboxamide], the Ki under setting [5] is 0.0356 µM.
On the same count and under the same terms, under `CN1C(=O)[C@@H](NC(=O)c2ncn(Cc3ccccc3Cl)n2)CCn2nc(C(F)(F)F)cc21` [Example 528] stands 0.0048 µM.
`CN1C(=O)[C@@H](NC(=O)c2nc3n(n2)CCN(C)C3c2ccccc2)COc2ccccc21` (single isomer, unassigned) [Example 730]: the Ki under setting [4] amounted to 0.112 µM.
Regarding `Cc1ncn2c1N(C)C(=O)C(NC(=O)c1n[nH]c(Cc3ccccc3)n1)CC2` (stereo not drawn) [Example 226, 5-benzyl-N-(1,9-dimethyl-2-oxo-2,3,4,5-tetrahydro-1H-imidazo[1,5-a][1,3]diazepin-3-yl)-1H-1,2,4-triazole-3-carboxamide], under setting [1], the Ki amounted to 0.183 µM.
Consider `CC[C@@H]1CCCc2nc(C(=O)N[C@H]3COc4ccccc4N(C)C3=O)nn21` (racemic) [Example 402, (R)-5-ethyl-N—((S)-5-methyl-4-oxo-2,3,4,5-tetrahydrobenzo[b][1,4]oxazepin-3-yl)-5,6,7,8-tetrahydro-[1,2,4]triazolo[1,5-a]pyridine-2-carboxamide], for which the Ki under setting [5] is 0.0087 µM.
Still for that read-out and setting: under `CN1C(=O)[C@@H](NC(=O)c2ncc3c(n2)C2(CCOCC2)OC3)COc2ccccc21` [Example 510] stands 0.33 µM.
As to `Cc1cc2n(n1)CC[C@H](NC(=O)c1ncn(Cc3ccc(Cl)cc3)n1)C(=O)N2C` [Example 170, (S)-1-(4-chlorobenzyl)-N-(2,4-dimethyl-5-oxo-5,6,7,8-tetrahydro-4H-pyrazolo[1,5-a][1,3]diazepin-6-yl)-1H-1,2,4-triazole-3-carboxamide], under setting [2], the Ki stood at 0.0132 µM.
The same measure, in the same setting: the figure for `CN1C(=O)C(NC(=O)c2nnc(Cc3ccc(F)cc3)[nH]2)CCCn2nccc21` (stereo not drawn) [Example 96, 5-(4-fluorobenzyl)-N-(4-methyl-5-oxo-4,5,6,7,8,9-hexahydropyrazolo[1,5-a][1,3]diazocin-6-yl)-4H-1,2,4-triazole-3-carboxamide] is 0.801 µM.
On to `CN1C(=O)[C@@H](NC(=O)c2nnc(Cc3ccccc3)[nH]2)CCn2nccc21` [Example 27, (S)-5-benzyl-N-(4-methyl-5-oxo-5,6,7,8-tetrahydro-4H-pyrazolo [1,5-a][1,3]diazepin-6-yl)-4H-1,2,4-triazole-3-carboxamide], for which the Ki under setting [3] was 0.0454 µM.
For the compound `Cc1cc(F)c2c(c1)OC[C@H](NC(=O)c1nc3cccc(C(C)C)n3n1)C(=O)N2` [Example 423, (S)—N-(6-fluoro-8-methyl-4-oxo-2,3,4,5-tetrahydrobenzo[b][1,4]oxazepin-3-yl)-5-isopropyl-[1,2,4]triazolo[1,5-a]pyridine-2-carboxamide], under setting [5], the Ki was 0.0034 µM.
For `Cc1cc2n(n1)CC[C@H](NC(=O)c1ncn(CC3CCCCO3)n1)C(=O)N2C` (stereo partly drawn) [Example 476, N-(6S)-2,4-dimethyl-5-oxo-7,8-dihydro-6H-pyrazolo[1,5-a][1,3]diazepin-6-yl-1-(tetrahydropyran-2-ylmethyl)-1,2,4-triazole-3-carboxamide], the Ki under setting [5] was determined as 0.31 µM.
For the compound `CN1C(=O)[C@@H](NC(=O)c2nc3n(n2)CCN[C@@H]3c2ccccc2)COc2ccccc21` (single isomer, unassigned) [Example 785], the Ki under setting [4] is 0.074 µM.
Turning to `Cc1cc2n(n1)CC[C@H](NC(=O)c1ncc3cnn(-c4ccccc4)c3n1)C(=O)N2C` [Example 540, 1-phenyl-N-[(6S)-2,4-dimethyl-5-oxo-7,8-dihydro-6H-pyrazolo[1,5-a][1,3]diazepin-6-yl]pyrazolo[3,4-d]pyrimidine-6-carboxamide], the Ki under setting [5] turned out to be 0.057 µM.
